Assay results reported in US8361802B2, “Fluorescent ozone sensor” (University of Pittsburgh—Of the Commonwealth System of …, priority 2009, dated 2013).

Legend:
[1] = Ozone detection method, fluorescence turn-on of sensor in aqueous buffer / cell culture media
Procedure: In order to develop a fluorescent method amenable to both biological and atmospheric detection, pH 7 buffer ([PO4^3−]=5 mM) is chosen to perform the conversion of sensor 4, such as homoallyl ether, to fluorescent compound 7. A solution of sensor 4 in 5:95 MeOH/pH 7 buffer at 24° C. is exposed to ozone, incubated at 37° C. for 1 hour to facilitate β-elimination, and formation of fluorescent compound 7 is observed (signal-to-background (S/B)=Sample B (28)/Sample A (0.35)=80) (FIG. 2a). For an ozone detection method in the presence of cells, the ozonolysis reaction is performed in a mixture of pH 7 buffer and RPMI-1640 cell culture media (3:1).
Ozone detection method. Solutions of compound 4 ([4]final=12.5 μM) in 5:95 MeOH/pH 7 buffer ([PO4^3−]=5 mM) solution (4.0 mL) were prepared, and the samples were exposed to ozone at 24° C. followed by 1 hour incubation at 37° C. before fluorescence measurement (except for the ambient air experiments). The concentration of ozone was 5 μM for these studies. Fluorescence spectra were recorded in a 1×1-cm disposable cuvette on a Jobin Yvon FluoroMax-3 spectrometer under the control of a Windows-based PC running FluorEssence software. The samples were excited at 497 nm and the emission intensities were collected at 523 nm. All spectra were corrected for emission intensity using the manufacturer supplied photomultiplier curves.
Ozone: Solution A (5.0 μL, [compound 4 or compound 8]final=12.5 μM) was added to a mixture of MeOH/pH 7 buffer ([PO4^3−]=5 mM) (5:95) (4.0 mL), and the samples were exposed to ozone (˜5 μM) at 24° C. followed by 1 hour incubation at 37° C. before fluorescence measurement.

[2] = Ozone detection in nasal fluid; conditions: ozone ~5 μM
Procedure: FIG. 2D illustrates Ozone detection in nasal fluid, wherein Left Sample: 4, no ozone; Right Sample: 4, + ozone.
One embodiment of the present invention is a biomedical probe to detect ozone. Since ozone is believed to be much too reactive to reach and permeate the epithelial cells, ozone detection in the presence of various antioxidants that are found in the epithelial lining fluid was attempted. […] Nasal fluid was tested to more accurately mimic the epithelial lining fluid of the lung.
(§1) Ozone detection in human pleural fluid. Human pleural fluid (1.0 mL) was diluted in pH 7 buffer ([PO4^3−]=5 mM) (3.0 mL). Solution A (5.0 μL, [compound 4]final=12.5 μM) was added to the resulting human pleural fluid mixture, and the samples were exposed to ozone (˜5 μM) at 24° C. followed by 1 hour incubation at 37° C. before fluorescence measurement. The experiment was performed in triplicate with an illustration of one of the tests represented in FIG. 2D.

[3] = Ozone detection in human serum; conditions: human serum diluted in pH 7 buffer, ozone ~5 μM
Procedure: FIG. 2E illustrates Ozone detection in human serum, wherein Left Sample: 4, no ozone; Right Sample: 4, + ozone.
One embodiment of the present invention utilized sensor 4 to detect ozone in human serum. […] One possible explanation may be due to the small Stokes shift that is found in fluorescein and its derivatives, which makes these fluorophores more prone to influences of scattering and interference.
as §1, with “serum.” for “pleural fluid.”, “serum” for “pleural fluid”, “2E.” for “2D.”

[4] = Air pollutant specificity; conditions: acid 250 μM, metal 100 nM, 30 minutes at 37° C.
Procedure: FIG. 3B illustrates Ozone specificity against other air pollutants: Sample A=no additive, Sample B=ozone, Sample C=HNO3, Sample D=H2SO4, Sample E=Pb, Sample F=Pd, Sample G=Pt. [Acid]=250 μM. [Metal]=100 nM. The acid samples were incubated in 5:95 MeOH/pure water for 30 minutes at 37° C. The metal samples were incubated in 5:95 MeOH/pH 7 buffer for 30 minutes at 37° C.
A number of other pollutants were screened to ensure that ozone was selectively detected. Nitrogen dioxide and sulfur dioxide convert to their corresponding acids in aqueous solution so nitric acid and sulfuric acid were screened. Lead, palladium and platinum, which are known pollutants emitted from automobiles, were also screened. […]
Acids: HNO3 or H2SO4 (10 μL of 0.1 M solution; [acid]final=250 μM) and solution A (5.0 μL, [compound 4]final=12.5 μM) were added to a mixture of MeOH/pure water solution (5:95) (4.0 mL), and the samples were incubated at 37° C. for 30 minutes before fluorescence measurement. […]
Metals: Pb, Pd or Pt solution (40 μL of 10 μM solution; [Metal]final=100 nM) and solution A (5.0 μL, [compound 4]final=12.5 μM) were added to a mixture of MeOH/pH 7 buffer ([PO4^3−]=5 mM) (5:95) (4.0 mL), and the samples were incubated at 37° C. for 30 minutes before fluorescence measurement. […]

Relative quantum yields = assay type: physicochemical; conditions: relative to fluorescein; phosphate buffer pH=7.0, excited at 490 nm
Procedure: Relative Quantum Yields. To determine quantum yields relative to fluorescein, a stock solution of compound 4 was prepared in DMSO (1 mM) and diluted in phosphate buffer (pH=7.0) to OD490=0.09. The samples were excited at 490 nm and the integrated emission spectra were compared. The quantum yields of all compounds were referenced to fluorescein in 0.1 N NaOH (Φ=0.95). The quantum yield for compound 4 was calculated as 0.00132

For C=CCCOc1cc2oc3cc(=O)c(Cl)cc-3c(-c3ccccc3CO)c2cc1Cl [compound 4], the “fluorescent intensity at 523 nm, Sample A (no ROS)” value ([1]; 12.5 μM sensor, 5:95 MeOH/pH 7 buffer, no ozone (background)) was 0.35 a. u.×10^5, the “fluorescent intensity at 523 nm, Sample B (ozone)” value ([1]; 12.5 μM sensor, 5:95 MeOH/pH 7 buffer, ozone at 24° C. then 1 hour at 37° C.) was 28 a. u.×10^5 and the “signal-to-background (S/B)” value ([1]; 5:95 MeOH/pH 7 buffer, ozone at 24° C. then 1 hour at 37° C.) was 80. The “signal-to-background (S/B)” value ([1]; mixture of pH 7 buffer and RPMI-1640 cell culture media (3:1)) was 104, the S/B [2] was 92 and the S/B [3] was 92. For the same compound, the “fluorescent signal with other air pollutants (species C-G)” value [4] was “none of these species C-G produced a fluorescent signal” and the quantum yield (Relative quantum yields) was 0.00132.
